Measurements: PubChem BioAssay AID330 (DTP/NCI, 2004)
Where “and” joins values, the source holds several entries; their conditions need not be identical. Identical values can stand only once. Toxic doses and inconclusive results are not listed.

Tested on: P388 leukemia ip, CD2F1 mice, survival T/C
Experiment: NCI In Vivo Anticancer Drug Screen. Data for tumor model P388 Leukemia (intraperitoneal) in CD2F1 (CDF1) mice
Details: endpoint: median survival time, higher = longer survival
Method in brief: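 Mice carrying the transplanted tumor received test compound or vehicle. Survival was recorded in each group, and the value is the treated-group measurement divided by that of the vehicle-treated control group.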

[1] = dose: 12.5 mg/kg/injection, schedule: Q04DX003 (ip), vehicle: saline
[2] = dose: 25.0 mg/kg/injection, schedule: Q04DX003 (ip), vehicle: saline
[3] = dose: 60.0 mg/kg/injection, schedule: Q01DX005 (ip), vehicle: saline with Tween-80
[4] = dose: 120.0 mg/kg/injection, schedule: Q01DX005 (ip), vehicle: saline with Tween-80
[5] = dose: 240.0 mg/kg/injection, schedule: Q01DX005 (ip), vehicle: saline with Tween-80
[6] = dose: 12.5 mg/kg/injection, schedule: Q01DX009 (ip), vehicle: saline
[7] = dose: 50.0 mg/kg/injection, schedule: Q01DX009 (ip), vehicle: saline
[8] = dose: 100.0 mg/kg/injection, schedule: Q01DX009 (ip), vehicle: saline
[9] = dose: 200.0 mg/kg/injection, schedule: Q01DX009 (ip), vehicle: saline
[10] = dose: 60.0 mg/kg/injection, schedule: Q01DX005 (ip), vehicle: Klucel (hydroxypropylcellulose) (HPC)
[11] = dose: 120.0 mg/kg/injection, schedule: Q01DX005 (ip), vehicle: Klucel (hydroxypropylcellulose) (HPC)
[12] = dose: 240.0 mg/kg/injection, schedule: Q01DX005 (ip), vehicle: Klucel (hydroxypropylcellulose) (HPC)

`COc1c(I)c2c(c(OC)c1OC)-c1ccc(OC)c(=O)cc1C(NC(C)=O)CC2` (stereo unspecified) was tested, and the T/C (dose: 6.25 mg/kg/injection, schedule: Q01DX009 (ip), vehicle: Klucel (hydroxypropylcellulose) (HPC)) was 178 % of control and the T/C (dose: 12.5 mg/kg/injection, schedule: Q01DX009 (ip), vehicle: Klucel (hydroxypropylcellulose) (HPC)) was 167 % of control.
`O=c1[nH]c(=O)c2[nH]c(Br)nc2[nH]1` was tested, and the T/C (dose: 50.0 mg/kg/injection, schedule: Q01DX005 (ip), vehicle: Klucel (hydroxypropylcellulose) (HPC)) was 102 % of control, the T/C (dose: 100.0 mg/kg/injection, schedule: Q01DX005 (ip), vehicle: Klucel (hydroxypropylcellulose) (HPC)) was 100 % of control and the T/C (dose: 200.0 mg/kg/injection, schedule: Q01DX005 (ip), vehicle: Klucel (hydroxypropylcellulose) (HPC)) was 100 % of control.
For `[Cl][Pt][Cl].[NH-]CCC[N-]CCCC[N-]CCC[NH-]`, the T/C (dose: 1.56 mg/kg/injection, schedule: Q04DX003 (ip), vehicle: saline) was 88 % of control, the T/C (dose: 3.13 mg/kg/injection, schedule: Q04DX003 (ip), vehicle: saline) was 98 % of control and 94 % of control and the T/C (dose: 6.25 mg/kg/injection, schedule: Q04DX003 (ip), vehicle: saline) was 107 % of control. For the same compound, the T/C [1] was 99 % of control and 119 % of control and 123 % of control and the T/C [2] was 102 % of control and 122 % of control.
`O=C1OC2C(O)COC23OC(O)CCC13O` (stereo unspecified) was tested, and the T/C (dose: 15.0 mg/kg/injection, schedule: Q01DX005 (ip), vehicle: saline with Tween-80) was 100 % of control, the T/C (dose: 30.0 mg/kg/injection, schedule: Q01DX005 (ip), vehicle: saline with Tween-80) was 102 % of control and the T/C [3] was 102 % of control. For the same compound, the T/C (dose: 60.0 mg/kg/injection, schedule: Q01DX005 (ip), vehicle: saline) was 104 % of control, the T/C [4] was 105 % of control and the T/C (dose: 120.0 mg/kg/injection, schedule: Q01DX005 (ip), vehicle: saline) was 102 % of control. For the same compound, the T/C [5] was 105 % of control and the T/C (dose: 240.0 mg/kg/injection, schedule: Q01DX005 (ip), vehicle: saline) was 102 % of control.
`CCO` was tested, and the T/C (dose: 250.0 mg/kg/injection, schedule: Q01DX009 (ip), vehicle: saline with Tween-80) was 95 % of control, the T/C (dose: 0.5 % in 0.5 ml injection vol, schedule: Q01DX009 (ip), vehicle: water) was 94 % of control and the T/C (dose: 500.0 mg/kg/injection, schedule: Q01DX009 (ip), vehicle: saline with Tween-80) was 90 % of control. For the same compound, the T/C (dose: 1.0 % in 0.5 ml injection vol, schedule: Q01DX009 (ip), vehicle: water) was 92 % of control, the T/C (dose: 1000.0 mg/kg/injection, schedule: Q01DX009 (ip), vehicle: saline with Tween-80) was 95 % of control and the T/C (dose: 2.0 % in 0.5 ml injection vol, schedule: Q01DX009 (ip), vehicle: water) was 102 % of control and 94 % of control. The T/C (dose: 2000.0 mg/kg/injection, schedule: Q01DX009 (ip), vehicle: saline with Tween-80) was 95 % of control, the T/C (dose: 4.0 % in 0.5 ml injection vol, schedule: Q01DX009 (ip), vehicle: water) was 101 % of control and 106 % of control and the T/C (dose: 8.0 % in 0.5 ml injection vol, schedule: Q01DX009 (ip), vehicle: water) was 100 % of control and 103 % of control. For the same compound, the T/C (dose: 16.0 % in 0.5 ml injection vol, schedule: Q01DX009 (ip), vehicle: water) was 100 % of control.
`CCOC(=O)NN` was tested, and the T/C [6] was 111 % of control and the T/C (dose: 25.0 mg/kg/injection, schedule: Q01DX009 (ip), vehicle: saline) was 92 % of control.
In the case of `COc1ccc2c(c1OC)[C@]13CCCC[C@@H]1[C@H](C2)N(C)CC3`, the T/C [1] is reported as 101 % of control, the T/C [2] is reported as 100 % of control and the T/C (dose: 50.0 mg/kg/injection, schedule: Q04DX003 (ip), vehicle: saline) is reported as 100 % of control.
`NC(=O)c1ccc(N)nc1` was tested, and the T/C (dose: 0.63 mg/kg/injection, schedule: Q01DX009 (ip), vehicle: saline) was 104 % of control, the T/C (dose: 1.25 mg/kg/injection, schedule: Q01DX009 (ip), vehicle: saline) was 100 % of control and the T/C (dose: 1.56 mg/kg/injection, schedule: Q01DX009 (ip), vehicle: saline with Tween-80) was 110 % of control. The T/C (dose: 2.5 mg/kg/injection, schedule: Q01DX009 (ip), vehicle: saline) was 121 % of control, the T/C (dose: 3.12 mg/kg/injection, schedule: Q01DX009 (ip), vehicle: saline with Tween-80) was 122 % of control and the T/C (dose: 6.25 mg/kg/injection, schedule: Q01DX009 (ip), vehicle: saline with Tween-80) was 117 % of control and 95 % of control. For the same compound, the T/C (dose: 6.25 mg/kg/injection, schedule: Q04DX003 (ip), vehicle: saline with Tween-80) was 109 % of control.
With `O=C(Oc1ccc[nH]c1=O)C12CC3CC(CC(C3)C1)C2` the T/C [7] was 101 % of control, the T/C [8] was 100 % of control and the T/C [9] was 98 % of control and 94 % of control. The T/C (dose: 400.0 mg/kg/injection, schedule: Q01DX009 (ip), vehicle: saline) was 99 % of control and 93 % of control.
For `CC(=O)SC1C(=O)N(C)C(SC(C)=O)C(=O)N1C` (stereo unspecified), the T/C (dose: 6.25 mg/kg/injection, schedule: Q01DX009 (ip), vehicle: saline) was 107 % of control and the T/C [6] was 110 % of control.
`Cc1cc(C2(c3cc(C)c(O)c(C)c3)c3ccccc3-c3ccccc32)cc(C)c1O` was tested, and the T/C (dose: 50.0 mg/kg/injection, schedule: Q01DX009 (ip), vehicle: Klucel (hydroxypropylcellulose) (HPC)) was 99 % of control, the T/C (dose: 100.0 mg/kg/injection, schedule: Q01DX009 (ip), vehicle: Klucel (hydroxypropylcellulose) (HPC)) was 99 % of control and the T/C (dose: 200.0 mg/kg/injection, schedule: Q01DX009 (ip), vehicle: Klucel (hydroxypropylcellulose) (HPC)) was 96 % of control.
With `O=C(O)[C@@H]1C[C@@H](O)CN1` the T/C [7] was 96 % of control, the T/C [8] was 96 % of control and the T/C [9] was 100 % of control.
With `COc1cc(OC)c(OC)cc1/C=C/C1=C(C)C(=O)CC(c2cc(OC)c(OC)cc2OC)C1C` (stereo unspecified) the T/C (dose: 100.0 mg/kg/injection, schedule: Q01DX001 (ip), vehicle: Klucel (hydroxypropylcellulose) (HPC)) was 86 % of control and the T/C (dose: 200.0 mg/kg/injection, schedule: Q01DX001 (ip), vehicle: Klucel (hydroxypropylcellulose) (HPC)) was 86 % of control.
For `C1CC[C@@]2([C@]34CCCC[C@H]3O4)O[C@H]2C1`, the T/C [10] was 99 % of control, the T/C [11] was 98 % of control and the T/C [12] was 95 % of control and 96 % of control.
For `COC(=N)c1nnn(-c2ccccc2)n1`, the T/C (dose: 100.0 mg/kg/injection, schedule: Q04DX003 (ip), vehicle: Klucel (hydroxypropylcellulose) (HPC)) was 97 % of control, the T/C (dose: 200.0 mg/kg/injection, schedule: Q04DX003 (ip), vehicle: Klucel (hydroxypropylcellulose) (HPC)) was 97 % of control and the T/C (dose: 400.0 mg/kg/injection, schedule: Q04DX003 (ip), vehicle: Klucel (hydroxypropylcellulose) (HPC)) was 95 % of control.
With `O=C(CC(=O)Oc1ccc(Cl)cc1Cl)Oc1ccc(Cl)cc1Cl` the T/C (dose: 100.0 mg/kg/injection, schedule: Q04DX003 (ip), vehicle: saline with Tween-80) was 95 % of control, the T/C (dose: 200.0 mg/kg/injection, schedule: Q04DX003 (ip), vehicle: saline with Tween-80) was 91 % of control and the T/C (dose: 400.0 mg/kg/injection, schedule: Q04DX003 (ip), vehicle: saline with Tween-80) was 100 % of control.
In the case of `CCCCCCCCCCCCCCCC[N+](C)(C)CCSC(C)=O`, the T/C (dose: 0.78 mg/kg/injection, schedule: Q01DX009 (ip), vehicle: acetone) is reported as 100 % of control, the T/C (dose: 1.56 mg/kg/injection, schedule: Q01DX009 (ip), vehicle: acetone) is reported as 104 % of control and the T/C (dose: 3.12 mg/kg/injection, schedule: Q01DX009 (ip), vehicle: acetone) is reported as 104 % of control. For the same compound, the T/C (dose: 6.25 mg/kg/injection, schedule: Q01DX009 (ip), vehicle: acetone) was 107 % of control.
In the case of `O=S(=O)(C1CC1c1ccccc1)C1CC1c1ccc(F)cc1` (stereo unspecified), the T/C (dose: 50.0 mg/kg/injection, schedule: Q01DX005 (ip), vehicle: saline with Tween-80) is reported as 100 % of control, the T/C (dose: 100.0 mg/kg/injection, schedule: Q01DX005 (ip), vehicle: saline with Tween-80) is reported as 95 % of control and the T/C (dose: 200.0 mg/kg/injection, schedule: Q01DX005 (ip), vehicle: saline with Tween-80) is reported as 101 % of control.
In the case of `COc1ccc(N=Cc2cc3c(cc2Br)OCO3)cc1`, the T/C (dose: 25.0 mg/kg/injection, schedule: Q01DX009 (ip), vehicle: other) is reported as 97 % of control, the T/C (dose: 50.0 mg/kg/injection, schedule: Q01DX009 (ip), vehicle: other) is reported as 96 % of control and the T/C (dose: 100.0 mg/kg/injection, schedule: Q01DX009 (ip), vehicle: other) is reported as 94 % of control. For the same compound, the T/C (dose: 200.0 mg/kg/injection, schedule: Q01DX009 (ip), vehicle: other) was 100 % of control and the T/C (dose: 400.0 mg/kg/injection, schedule: Q01DX009 (ip), vehicle: other) was 100 % of control.
For `C[C@@]1(CO)CCc2c(c3ccccc3oc2=O)O1`, the T/C [3] was 94 % of control, the T/C [4] was 92 % of control and the T/C [5] was 90 % of control.
In the case of `COc1ccc(Br)cc1C1SCC(=O)N1c1nncs1` (stereo unspecified), the T/C [10] is reported as 101 % of control, the T/C [11] is reported as 101 % of control and the T/C [12] is reported as 93 % of control.
